Assay results as given in the RepoRT retention time repository.
Counter-ions that a name gives are not always drawn.

Assay: RP, Thermo Scientific Hypersil GOLD, 1.9 µm, 40 °C, 0.4 mL/min; A: water + 0.1% formic acid, pH 3; B: acetonitrile + 0.1% formic acid, pH 3; gradient (min/%B) 0/0 1/0 11/100 13/100 14/0 16/0
Conditions: stereoisomer not certain

LC retention time [min] | SMILES
1.22 | O=C(O)c1cccnc1C(=O)O [QUINOLINATE]
0.74 | Nc1ccn(C2CC(O)C(COP(=O)(O)O)O2)c(=O)n1 (stereo not given) [DEOXYCYTIDINE MONOPHOSPHATE]
0.82 | NC(=O)NCCC(=O)O [UREIDOPROPIONATE]
0.55 | NCCCCCN [CADAVERINE]
0.76 | O=c1ccn(C2OC(COP(=O)(O)O)C(O)C2O)c(=O)[nH]1 (stereo not given) [URIDINE MONOPHOSPHATE]
2.15 | Cn1cnc2[nH]c(=O)[nH]c(=O)c21 [7-Methylxanthine]
0.63 | C[n+]1cccc(C(N)=O)c1 [1-METHYLNICOTINAMIDE]
0.67 | O=P(O)(O)OC(CO)CO [BETA-GLYCEROPHOSPHATE]
1.48 | CCC(C)C(N)C(=O)O (stereo not given) [ISOLEUCINE]
6.28 | OCCc1c[nH]c2ccccc12 [INDOLE-3-ETHANOL]
0.78 | O=C1OC(C(O)CO)C(O)=C1O (stereo not given) [ASCORBATE]
8.07 | CC12CCC3c4ccc(O)cc4CCC3C1CCC2O (stereo not drawn) [ESTRADIOL-17ALPHA]
1.71 | CCC(O)C(=O)[O-] (stereo not given) [2-HYDROXYBUTYRATE]
0.54 | NCCCCN=C(N)N [AGMATINE SULFATE]
4.1 | NC(=O)[C@@H](N)Cc1c[nH]c2ccccc12 [L-TRYPTOPHANAMIDE]
4.73 | Oc1cc(O)c2c(c1)OC(c1ccc(O)c(O)c1)C(O)C2 (single isomer, unassigned; (+)) [(+)-Catechin hydrate]
3.66 | CC(CC(=O)O)C(=O)O (stereo not given) [Methyl-succinic acid]
4.38 | O=C(O)C(O)Cc1ccc(O)cc1 (stereo not given) [HYDROXYPHENYLLACTATE]
5.24 | O=c1c(-c2ccc(O)cc2)coc2cc(OC3OC(CO)C(O)C(O)C3O)ccc12 (stereo not given) [daidzin]
14 | CCCCCCCCC=CCCCCCCCCCCCCCC(=O)[O-] [NERVONATE]
13.9 | CC(C)=CCCC(C)C1CCC2C3CC=C4CC(O)CCC4(C)C3CCC12C (stereo not given) [DESMOSTEROL]
5.42 | CC1OC(OCC2OC(Oc3c(-c4ccc(O)c(O)c4)oc4cc(O)cc(O)c4c3=O)C(O)C(O)C2O)C(O)C(O)C1O (stereo not given) [rutin hydrate]
0.63 | OCC1OC(OCC2OC(O)C(O)C(O)C2O)C(O)C(O)C1O (stereo not given) [MELIBIOSE]

LC retention time [min] | SMILES
0.93 | CC(=O)NC(CCC(=O)O)C(=O)O (stereo not given) [N-ACETYLGLUTAMATE]
7.04 | O=C1CC(c2ccc(O)cc2)Oc2cc(O)cc(O)c21 (stereo not given) [Naringenin]
4.21 | CSCCC(O)C(=O)O (stereo not given) [2-HYDROXY-4-(METHYLTHIO)BUTANOATE]
2.05 | O=C(O)C(=O)C(=O)O [MESOXALATE]
0.67 | OCC1OC(OCC2OC(O)(CO)C(O)C2O)C(O)C(O)C1O (stereo not given) [PALATINOSE]
9.21 | COC1=C(OC)C(=O)C(CC=C(C)C)=C(C)C1=O [coenzyme Q1]
3.66 | CC1OC(n2cnc3c(N)ncnc32)C(O)C1O (stereo not given) [5'-DEOXYADENOSINE]
0.67 | N[C@H](C(=O)O)c1ccc(O)cc1 [4-HYDROXY-L-PHENYLGLYCINE]
0.62 | CN1CC(=O)NC1=N [CREATININE]
0.69 | CC(=O)OCC(N)C(=O)O (stereo not given) [O-ACETYLSERINE]
0.81 | CC(=O)OC(CC(=O)[O-])C[N+](C)(C)C (stereo not drawn) [o-acetyl-l-carnitine hydrochloride]
8.05 | CC(=O)C1CCC2C3CC=C4CC(OS(=O)(=O)O)CCC4(C)C3CCC12C (stereo not given) [pregnenolone sulfate]
1.09 | Nc1ncnc2c1ncn2C1CC(O)C(CO)O1 (stereo not given) [DEOXYADENOSINE]
0.61 | CCCCCCCCC=CCCCCCCCC(=O)OCC(O)COP(=O)([O-])OCC[N+](C)(C)C (stereo not given) [18-1_LysoPC]
5.05 | Cc1cc2nc3c(=O)[nH]c(=O)nc-3n(CC(O)C(O)C(O)CO)c2cc1C (stereo not given) [RIBOFLAVIN]
1.69 | CC(=O)NCCCC(=O)O [4-ACETAMIDOBUTANOATE]
0.69 | O=C(CO)COP(=O)(O)O [DIHYDROXYACETONE PHOSPHATE]
0.59 | Cc1ncc(CO)c(CN)c1O [PYRIDOXAMINE]
4.27 | Cn1c(=O)[nH]c2[nH]c(=O)n(C)c2c1=O [1-7-Dimethyluric acid]
8.73 | CC(CCC(=O)NCCS(=O)(=O)O)C1CCC2C3CCC4CC(O)CCC4(C)C3CCC12C (stereo not given) [LITHOCHOLYLTAURINE]
1.9 | CC(=O)NC(CS)C(=O)O (stereo not given) [N-ACETYLCYSTEINE]
3.73 | COC1C(O)C(CO)OC1n1cnc2c(=O)[nH]cnc21 (stereo not given) [2'-O-Methylinosine]
3.59 | NCc1ccccc1 [BENZYLAMINE]

LC retention time [min] | SMILES
0.69 | Cc1ncccc1C(N)=O [2-Methylnicotinamide]
3.77 | N[C@@H](Cc1ccc(O)c([N+](=O)[O-])c1)C(=O)O [3-NITRO-L-TYROSINE]
0.8 | O=C(O)CC(=O)CC(=O)O [1-3-Acetonedicarboxylic acid]
13.5 | CCCCCCCCC=CCCCCCCCCCCCC(=O)O [ERUCATE]
6.4 | COC(=O)c1ccc(O)c(OC)c1 [METHYL VANILLATE]
0.62 | NC(CCO)C(=O)O (stereo not given) [HOMOSERINE]
0.82 | Cc1cn(C2CC(O)C(COP(=O)(O)O)O2)c(=O)[nH]c1=O (stereo not given) [THYMIDINE-MONOPHOSPHATE]
9.69 | CCCCCCCCCCCCCCCC(=O)OC(CC(=O)[O-])C[N+](C)(C)C [Palmitoyl-L-carnitine]
0.64 | NC1(C(=O)O)CC1 [1-AMINOCYCLOPROPANECARBOXYLATE]
0.68 | NC(=O)c1ccc[n+](C2OC(COP(=O)([O-])O)C(O)C2O)c1 (stereo not given) [NICOTINAMIDE MONONUCLEOTIDE]
8.5 | c1ccc(CNc2ccccc2)cc1 [N-benzylaniline]
4.64 | NC(=O)c1ncccc1O [3-Hydroxypicolinamide]
8.63 | CCCCCCCCCCCC(=O)OC(CC(=O)[O-])C[N+](C)(C)C (stereo not given) [LAUROYLCARNITINE]
0.7 | Cc1cnc(=O)[nH]c1N [5-METHYLCYTOSINE]
6.57 | O=C(O)/C=C/c1c[nH]c2ccccc12 [trans-3-indoleacrylic acid]
6.28 | Oc1ccc(C=Cc2cc(O)cc(O)c2)cc1 [resveratrol]
0.84 | O=C1C=CC(=O)N1 [MALEIMIDE]
2.15 | COc1cc(C(O)C(=O)O)ccc1O (stereo not given) [3-METHOXY-4-HYDROXYMANDELATE]
0.81 | Nc1cc([O-])cc(C(=O)O)c1 [3-AMINO-5-HYDROXYBENZOATE]
0.66 | O=P(O)(O)OCC1OC(O)(CO)C(O)C1O (stereo not given) [FRUCTOSE 6-PHOSPHATE]
0.63 | CN(C)CC(=O)O [N-N-dimethylglycine]
0.78 | Nc1ccn(C2OC(CO)C(O)C2O)c(=O)n1 (stereo not given) [CYTIDINE]

SMILES | LC retention time [min]
O=C(O)CCCCCCCCCCCO [OMEGA-HYDROXYDODECANOATE] | 7.84
NCCc1c[nH]c2ccccc12 [TRYPTAMINE] | 4.7
